# Measured values published in patent publication US7399756B2, “Organo-phosphorous compounds for activating gamma/delta T cells” (Bioagency AG, priority 2001, dated 2008).
# Test system: V gamma 9+ T-cells (gamma/delta T-cells)
# Experiment: Activation of gamma/delta T-cells: CD25 expression on V gamma 9+ T-cells of peripheral blood lymphocytes, flow cytometry
# Format: cell-based, human
# Settings: peripheral blood lymphocytes of healthy donors, 72 hours incubation with IL-2, CD25 activation marker; IPP positive control 10 μM
# Method: Lymphocytes were obtained from the peripheral blood of healthy donors by Ficoll density gradient centrifugation. For each test, 2×10^5 of the cells so obtained were seeded in a volume of 0.2 ml of RPMI-1640 medium (Life Technologies) that was enriched with 25 mM HEPES, 2 mM L-glutamine, 0.025 mg/ml of gentamicin, 100 U/ml of human interleukin-2 (IL-2) (all from Life Technologies) and 10% human AB serum (Bavarian Red Cross). The test fractions were added in various dilutions, and isopentenyl diphosphate (IPP) from Sigma was used in a final concentration of 10 μM as a positive control. Incubation was effected in the incubator with 5% CO2 at 37° C. After 72 hours the cells were harvested and analysed in a flow cytometer. In so doing, the expression of the CD25 activation marker on the surface of V gamma 9^+ T-cells was measured with the aid of the monoclonal antibodies CD25-PE (B1.49.9), V gamma 9-FITC (lmmu360) and CD3-PC5 (UCHT1) supplied by Beckman-Coulter.
# Lymphocytes were obtained from the peripheral blood of healthy donors by Ficoll density gradient centrifugation. […] After 72 hours the cells were harvested and analysed in a flow cytometer. In so doing, the expression of the CD25 activation marker on the surface of V gamma 9^+ T-cells was measured with the aid of the monoclonal antibodies CD25-PE (B1.49.9), V gamma 9-FITC (Immu360) and CD3-PC5 (UCHT1) supplied by Beckman-Coulter.
row,Compound,activity relative to IPP (times more active than IPP)
1,CC(=CCCP(=O)([O-])CP(=O)([O-])[O-])CO.[Na+].[Na+].[Na+] [compound 19],about 500 times
2,CC(=CCCP(=O)([O-])OP(=O)([O-])[O-])CO.[Na+].[Na+].[Na+] [compound 15],about 500 times
